{
  "source": "ChEMBL document CHEMBL5385876",
  "about": "“Discovery of unglycosylated indolocarbazoles as ROCK2 isoform-selective inhibitors for the treatment of breast cancer metastasis” (Eur J Med Chem, 2023)",
  "key": {"[1]": {"biological_target": "Rho-associated protein kinase 2 (Homo sapiens, UniProt O75116)", "sequence (O75116 whole entry, the tested form may be a part)": "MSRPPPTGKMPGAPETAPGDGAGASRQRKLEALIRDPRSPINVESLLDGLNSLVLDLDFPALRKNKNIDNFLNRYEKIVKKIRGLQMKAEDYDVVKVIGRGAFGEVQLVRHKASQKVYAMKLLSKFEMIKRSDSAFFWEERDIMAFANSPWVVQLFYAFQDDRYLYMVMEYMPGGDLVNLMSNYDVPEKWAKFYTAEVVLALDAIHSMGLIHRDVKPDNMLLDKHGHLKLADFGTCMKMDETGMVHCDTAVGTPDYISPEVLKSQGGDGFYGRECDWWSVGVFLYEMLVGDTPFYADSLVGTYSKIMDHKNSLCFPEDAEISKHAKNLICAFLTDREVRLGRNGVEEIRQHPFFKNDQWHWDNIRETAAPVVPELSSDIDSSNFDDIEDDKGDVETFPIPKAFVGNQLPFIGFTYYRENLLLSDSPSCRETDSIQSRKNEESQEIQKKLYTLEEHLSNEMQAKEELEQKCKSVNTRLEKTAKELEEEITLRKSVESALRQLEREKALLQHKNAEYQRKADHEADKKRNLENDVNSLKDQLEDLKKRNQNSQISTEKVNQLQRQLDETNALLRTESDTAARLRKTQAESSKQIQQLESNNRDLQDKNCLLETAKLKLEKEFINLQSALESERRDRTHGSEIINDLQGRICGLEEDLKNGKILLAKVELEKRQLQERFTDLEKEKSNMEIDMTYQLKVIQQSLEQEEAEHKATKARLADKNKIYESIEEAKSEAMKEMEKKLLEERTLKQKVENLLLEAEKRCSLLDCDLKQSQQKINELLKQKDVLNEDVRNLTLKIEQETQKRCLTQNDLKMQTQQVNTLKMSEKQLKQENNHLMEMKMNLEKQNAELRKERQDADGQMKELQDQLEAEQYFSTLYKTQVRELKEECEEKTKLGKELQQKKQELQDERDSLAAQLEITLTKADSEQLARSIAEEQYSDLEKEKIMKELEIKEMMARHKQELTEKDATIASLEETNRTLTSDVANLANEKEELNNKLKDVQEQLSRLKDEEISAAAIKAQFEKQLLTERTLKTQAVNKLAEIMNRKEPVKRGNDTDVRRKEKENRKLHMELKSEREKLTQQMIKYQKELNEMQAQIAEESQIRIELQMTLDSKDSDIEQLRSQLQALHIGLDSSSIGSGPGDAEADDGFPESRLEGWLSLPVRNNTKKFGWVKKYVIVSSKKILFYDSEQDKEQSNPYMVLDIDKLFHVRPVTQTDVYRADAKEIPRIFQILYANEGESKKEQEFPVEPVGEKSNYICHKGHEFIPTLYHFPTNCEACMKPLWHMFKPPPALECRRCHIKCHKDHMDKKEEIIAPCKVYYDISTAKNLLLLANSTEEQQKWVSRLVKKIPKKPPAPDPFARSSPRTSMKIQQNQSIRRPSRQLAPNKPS", "experiment": "Inhibition of N-terminal His10-StrepII tagged human ROCK2 catalytic domain (1 to 553 residues) expressed in Sf9 insect cells by HTRF assay"}, "MDA-MB-231 [2]": {"system": "MDA-MB-231", "experiment": "Antimetastatic activity in human MDA-MB-231 cells assessed as effect on cell shapes at 5 uM incubated for 24 hrs by SEM analysis", "assay_type": "functional, cell-based"}, "MDA-MB-231 [3]": {"system": "MDA-MB-231", "experiment": "Inhibition of cell migration in human MDA-MB-231 cells incubated for 48 hrs by scratch wound healing assay", "assay_type": "functional, cell-based", "details": "dose 1.25-10 µM"}, "[4]": {"experiment": "Toxicity in BALB/c nude mouse xenografted with human MDA-MB-231 cells harboring Luc-mcherry assessed as reduction in body weight at 15 mg/kg, iv administered once a day for 45 days", "assay_type": "organism-based", "details": "in vivo, 1080 h, time 45 day"}, "MDA-MB-231 [5]": {"system": "MDA-MB-231", "experiment": "Antiproliferative activity against human MDA-MB-231 cells assessed as suppression of cell growth incubated for 72 hrs by SRB assay", "assay_type": "functional, cell-based", "details": "MDA-MB-231, 72 h"}, "SK-OV-3": {"system": "SK-OV-3", "experiment": "Antiproliferative activity against human SK-OV-3 cells assessed as suppression of cell growth incubated for 72 hrs by SRB assay", "assay_type": "functional, cell-based", "details": "SK-OV-3, 72 h"}, "MDA-MB-231 [6]": {"system": "MDA-MB-231", "experiment": "Antimetastatic activity against human MDA-MB-231 cells harboring Luc-mcherry xenografted in BALB/c nude mouse at 15 mg/kg, iv administered once a day for 45 days and measured on day 19,30 and 45 by bioluminescence imaging", "assay_type": "functional, organism-based", "details": "time 45.0 day"}, "MDA-MB-231 [7]": {"system": "MDA-MB-231", "experiment": "Downregulation of phosphorylated STAT1 protein expression in human MDA-MB-231 cells at 0.5 uM incubated for 24 hrs by Western blot analysis", "assay_type": "functional, cell-based"}, "MDA-MB-231 [8]": {"system": "MDA-MB-231", "experiment": "Downregulation of phosphorylated STAT2 protein expression in human MDA-MB-231 cells at 0.5 uM incubated for 24 hrs by Western blot analysis", "assay_type": "functional, cell-based"}, "[9]": {"experiment": "AUC (0 to t) in ICR mouse at 15 mg/kg, iv administered as single dose and measured for 8 hrs by LC-MS/MS analysis", "assay_type": "ADME, organism-based", "set-up": "time 8 hrs, dose 15 mg/kg, route iv", "details": "in vivo"}, "[10]": {"experiment": "AUC (0 to infinity) in ICR mouse at 15 mg/kg, iv administered as single dose and measured for 8 hrs by LC-MS/MS analysis", "assay_type": "ADME, organism-based", "set-up": "time 8 hrs, dose 15 mg/kg, route iv", "details": "in vivo"}, "[11]": {"experiment": "MRT (0 to t) in ICR mouse at 15 mg/kg, iv administered as single dose and measured for 8 hrs by LC-MS/MS analysis", "assay_type": "ADME, organism-based", "details": "in vivo"}, "[12]": {"experiment": "MRT (0 to infinity) in ICR mouse at 15 mg/kg, iv administered as single dose and measured for 8 hrs by LC-MS/MS analysis", "assay_type": "ADME, organism-based", "details": "in vivo"}, "[13]": {"experiment": "Half life in ICR mouse at 15 mg/kg, iv administered as single dose and measured for 8 hrs by LC-MS/MS analysis", "assay_type": "ADME, organism-based", "details": "in vivo"}, "[14]": {"experiment": "Cmax in ICR mouse at 15 mg/kg, iv administered as single dose and measured for 8 hrs by LC-MS/MS analysis", "assay_type": "ADME, organism-based", "set-up": "time 8 hrs, dose 15 mg/kg, route iv", "details": "in vivo"}, "[15]": {"experiment": "Clearance in ICR mouse at 15 mg/kg, iv administered as single dose and measured for 8 hrs by LC-MS/MS analysis", "assay_type": "ADME, organism-based", "details": "in vivo"}, "[16]": {"experiment": "Volume of distribution at terminal state in ICR mouse at 15 mg/kg, iv administered as single dose and measured for 8 hrs by LC-MS/MS analysis", "assay_type": "ADME, organism-based", "details": "in vivo, read-out: Vz"}, "[17]": {"biological_target": "Rho-associated protein kinase 1 (Homo sapiens, UniProt Q13464)", "experiment": "Inhibition of ROCK1 (unknown origin)"}, "[18]": {"biological_target": "Protein kinase C delta type (Homo sapiens, UniProt Q05655)", "sequence (Q05655 whole entry)": "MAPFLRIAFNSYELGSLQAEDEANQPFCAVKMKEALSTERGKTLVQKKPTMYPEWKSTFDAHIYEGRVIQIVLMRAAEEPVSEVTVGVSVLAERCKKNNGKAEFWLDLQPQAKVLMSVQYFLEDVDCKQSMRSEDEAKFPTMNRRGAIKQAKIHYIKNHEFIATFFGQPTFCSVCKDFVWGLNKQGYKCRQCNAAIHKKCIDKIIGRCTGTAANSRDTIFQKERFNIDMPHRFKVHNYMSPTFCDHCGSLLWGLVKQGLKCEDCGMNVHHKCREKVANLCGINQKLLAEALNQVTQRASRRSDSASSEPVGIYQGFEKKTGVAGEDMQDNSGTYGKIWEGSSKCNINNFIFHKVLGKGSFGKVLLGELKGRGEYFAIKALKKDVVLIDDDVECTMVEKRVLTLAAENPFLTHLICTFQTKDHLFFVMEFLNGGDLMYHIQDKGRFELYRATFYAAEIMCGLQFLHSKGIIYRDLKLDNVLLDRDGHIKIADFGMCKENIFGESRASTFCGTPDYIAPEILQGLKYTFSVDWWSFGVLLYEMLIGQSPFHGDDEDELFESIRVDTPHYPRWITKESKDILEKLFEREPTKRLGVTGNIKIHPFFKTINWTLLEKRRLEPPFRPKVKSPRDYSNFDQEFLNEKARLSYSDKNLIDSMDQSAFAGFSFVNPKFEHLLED", "experiment": "Inhibition of PKCdelta (unknown origin)"}, "[19]": {"biological_target": "Inhibitor of nuclear factor kappa-B kinase subunit beta (Homo sapiens, UniProt O14920)", "experiment": "Inhibition of IKKbeta (unknown origin)"}, "[20]": {"biological_target": "Serine/threonine-protein kinase PLK1 (Homo sapiens, UniProt P53350)", "sequence (P53350 whole entry)": "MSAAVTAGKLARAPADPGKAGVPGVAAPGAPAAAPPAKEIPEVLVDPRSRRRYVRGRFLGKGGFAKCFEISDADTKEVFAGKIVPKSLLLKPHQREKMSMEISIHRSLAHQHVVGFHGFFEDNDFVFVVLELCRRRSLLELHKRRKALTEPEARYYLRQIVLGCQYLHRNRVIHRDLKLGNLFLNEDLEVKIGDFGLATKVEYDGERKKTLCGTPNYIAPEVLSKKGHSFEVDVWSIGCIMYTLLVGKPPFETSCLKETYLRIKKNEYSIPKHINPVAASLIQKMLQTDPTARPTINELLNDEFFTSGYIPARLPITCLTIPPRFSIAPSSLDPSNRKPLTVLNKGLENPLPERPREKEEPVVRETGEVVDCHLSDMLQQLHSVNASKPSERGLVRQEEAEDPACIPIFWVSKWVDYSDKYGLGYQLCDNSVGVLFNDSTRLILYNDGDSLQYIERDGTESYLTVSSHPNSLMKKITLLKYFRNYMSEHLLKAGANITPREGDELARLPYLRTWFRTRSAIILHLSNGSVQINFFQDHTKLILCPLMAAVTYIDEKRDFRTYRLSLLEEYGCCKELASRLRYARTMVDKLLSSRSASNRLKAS", "experiment": "Inhibition of PLK1 (unknown origin)"}, "[21]": {"experiment": "Oral bioavailability in ICR mouse at 20 mg/kg administered as single dose and measured for 8 hrs by LC-MS/MS analysis", "assay_type": "ADME, organism-based", "details": "in vivo"}, "[22]": {"experiment": "Drug uptake in lung of ICR mouse at 15 mg/kg, iv administered as single dose and measured after 0.25 to 4 hrs by LC-MS/MS analysis", "assay_type": "ADME, organism-based", "details": "in vivo, time 0.25-4 hrs"}, "[23]": {"biological_target": "Signal transducer and activator of transcription 3 (Homo sapiens) (UniProt P40763)", "sequence (P40763 whole entry)": "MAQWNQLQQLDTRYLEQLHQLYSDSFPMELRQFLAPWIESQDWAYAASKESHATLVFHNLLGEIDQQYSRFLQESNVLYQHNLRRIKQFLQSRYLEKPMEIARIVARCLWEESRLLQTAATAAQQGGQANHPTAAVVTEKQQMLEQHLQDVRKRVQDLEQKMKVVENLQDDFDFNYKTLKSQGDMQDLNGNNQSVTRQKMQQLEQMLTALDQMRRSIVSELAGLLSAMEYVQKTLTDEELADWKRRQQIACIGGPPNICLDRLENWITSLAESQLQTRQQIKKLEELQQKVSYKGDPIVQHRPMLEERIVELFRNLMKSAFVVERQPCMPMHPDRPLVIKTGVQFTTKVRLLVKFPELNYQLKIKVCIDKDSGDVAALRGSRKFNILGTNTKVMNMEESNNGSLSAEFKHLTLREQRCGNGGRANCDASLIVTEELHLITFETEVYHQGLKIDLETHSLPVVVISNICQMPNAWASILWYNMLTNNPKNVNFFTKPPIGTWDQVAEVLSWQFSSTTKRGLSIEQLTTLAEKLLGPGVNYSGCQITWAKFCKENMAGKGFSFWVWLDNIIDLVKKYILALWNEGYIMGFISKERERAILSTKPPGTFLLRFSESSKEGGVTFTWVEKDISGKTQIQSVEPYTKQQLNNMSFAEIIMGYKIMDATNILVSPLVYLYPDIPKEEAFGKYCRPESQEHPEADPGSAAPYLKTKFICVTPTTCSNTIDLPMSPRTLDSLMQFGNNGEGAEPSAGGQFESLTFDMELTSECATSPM", "experiment": "Inhibition of STAT3 activation in human MDA-MB-231 cells assessed as reduction in STAT3 phosphorylation at Y705 residue at 1.25 to 10 uM incubated for 24 hrs by Western blot analysis", "assay_type": "cell-based", "details": "dose 1.25-10 µM"}, "[24]": {"biological_target": "Signal transducer and activator of transcription 3 (Homo sapiens) (UniProt P40763)", "experiment": "Inhibition of STAT3 transcriptional activity in human MDA-MB-231 cells assessed as reduction in TWIST1 mRNA level at 5 uM incubated for 24 hrs by qRT-PCR analysis", "assay_type": "cell-based"}, "MDA-MB-231 [25]": {"system": "MDA-MB-231", "experiment": "Inhibition of IL-6 stimulated cell invasion in human MDA-MB-231 cells at 5 uM incubated for 24 hrs by crystal violet staining based transwell assay", "assay_type": "functional"}, "MDA-MB-231 [26]": {"system": "MDA-MB-231", "experiment": "Inhibition of IL-6 stimulated phosphorylated STAT3 at Y705 residue expression in human MDA-MB-231 cells at 5 uM incubated for 24 hrs by Western blot analysis", "assay_type": "functional, cell-based"}, "[27]": {"system": "Rho-associated protein kinase 2 (Homo sapiens), O75116 [K121A]", "sequence (O75116 whole entry K121A, the tested form may be a part)": "as the sequence (O75116 whole entry, the tested form may be a part) above, with K121A counted along it", "experiment": "Binding affinity to N-terminal His10-StrepII tagged human ROCK2 K121A mutant catalytic domain (1 to 553 residues) expressed in Sf9 insect cells assessed as change in melting temperature at 50 uM by SYPRO orange dye based thermal shift assay"}, "[28]": {"system": "Rho-associated protein kinase 2 (Homo sapiens), O75116 [D232A]", "sequence (O75116 whole entry D232A, the tested form may be a part)": "as the sequence (O75116 whole entry, the tested form may be a part) above, with D232A counted along it", "experiment": "Binding affinity to N-terminal His10-StrepII tagged human ROCK2 D232A mutant catalytic domain (1 to 553 residues) expressed in Sf9 insect cells assessed as change in melting temperature at 50 uM by SYPRO orange dye based thermal shift assay"}, "[29]": {"system": "Rho-associated protein kinase 2 (Homo sapiens), O75116 [E140A]", "sequence (O75116 whole entry E140A, the tested form may be a part)": "as the sequence (O75116 whole entry, the tested form may be a part) above, with E140A counted along it", "experiment": "Binding affinity to N-terminal His10-StrepII tagged human ROCK2 E140A mutant catalytic domain (1 to 553 residues) expressed in Sf9 insect cells assessed as change in melting temperature at 50 uM by SYPRO orange dye based thermal shift assay"}, "[30]": {"system": "Rho-associated protein kinase 2 (Homo sapiens), O75116 [M87A]", "sequence (O75116 whole entry M87A, the tested form may be a part)": "as the sequence (O75116 whole entry, the tested form may be a part) above, with M87A counted along it", "experiment": "Binding affinity to N-terminal His10-StrepII tagged human ROCK2 M87A mutant catalytic domain (1 to 553 residues) expressed in Sf9 insect cells assessed as change in melting temperature at 50 uM by SYPRO orange dye based thermal shift assay"}, "[31]": {"biological_target": "High affinity nerve growth factor receptor (Homo sapiens) (UniProt P04629)", "sequence (P04629 33-796 limits assumed)": "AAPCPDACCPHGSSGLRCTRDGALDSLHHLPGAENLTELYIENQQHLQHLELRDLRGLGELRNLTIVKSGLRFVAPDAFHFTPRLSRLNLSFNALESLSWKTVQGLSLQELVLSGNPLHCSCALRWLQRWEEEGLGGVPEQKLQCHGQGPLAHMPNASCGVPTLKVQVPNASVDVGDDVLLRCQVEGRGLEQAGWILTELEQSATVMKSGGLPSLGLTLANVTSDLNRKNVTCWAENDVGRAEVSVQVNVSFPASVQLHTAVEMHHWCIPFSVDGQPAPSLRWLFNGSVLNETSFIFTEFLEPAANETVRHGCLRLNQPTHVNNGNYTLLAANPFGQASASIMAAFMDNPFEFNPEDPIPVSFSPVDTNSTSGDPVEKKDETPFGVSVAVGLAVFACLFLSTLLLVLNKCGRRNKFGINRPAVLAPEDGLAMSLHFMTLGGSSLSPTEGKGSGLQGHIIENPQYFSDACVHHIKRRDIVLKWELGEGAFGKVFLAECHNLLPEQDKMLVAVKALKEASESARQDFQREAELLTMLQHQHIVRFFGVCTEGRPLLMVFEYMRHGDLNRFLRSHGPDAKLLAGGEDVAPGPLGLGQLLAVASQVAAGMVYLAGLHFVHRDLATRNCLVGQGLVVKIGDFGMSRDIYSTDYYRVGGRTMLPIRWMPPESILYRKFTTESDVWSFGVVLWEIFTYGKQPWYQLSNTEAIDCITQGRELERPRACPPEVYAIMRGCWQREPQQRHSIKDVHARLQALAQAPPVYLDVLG", "experiment": "Inhibition of human recombinant TRKA at 125 nM"}, "[32]": {"biological_target": "Misshapen-like kinase 1 (Homo sapiens) (UniProt Q8N4C8)", "experiment": "Inhibition of human recombinant MINK1 at 125 nM"}, "[33]": {"biological_target": "Maternal embryonic leucine zipper kinase (Homo sapiens) (UniProt Q14680)", "experiment": "Inhibition of human recombinant MELK at 125 nM"}, "[34]": {"biological_target": "3-phosphoinositide-dependent protein kinase 1 (Homo sapiens) (UniProt O15530)", "sequence (O15530 whole entry, looked up)": "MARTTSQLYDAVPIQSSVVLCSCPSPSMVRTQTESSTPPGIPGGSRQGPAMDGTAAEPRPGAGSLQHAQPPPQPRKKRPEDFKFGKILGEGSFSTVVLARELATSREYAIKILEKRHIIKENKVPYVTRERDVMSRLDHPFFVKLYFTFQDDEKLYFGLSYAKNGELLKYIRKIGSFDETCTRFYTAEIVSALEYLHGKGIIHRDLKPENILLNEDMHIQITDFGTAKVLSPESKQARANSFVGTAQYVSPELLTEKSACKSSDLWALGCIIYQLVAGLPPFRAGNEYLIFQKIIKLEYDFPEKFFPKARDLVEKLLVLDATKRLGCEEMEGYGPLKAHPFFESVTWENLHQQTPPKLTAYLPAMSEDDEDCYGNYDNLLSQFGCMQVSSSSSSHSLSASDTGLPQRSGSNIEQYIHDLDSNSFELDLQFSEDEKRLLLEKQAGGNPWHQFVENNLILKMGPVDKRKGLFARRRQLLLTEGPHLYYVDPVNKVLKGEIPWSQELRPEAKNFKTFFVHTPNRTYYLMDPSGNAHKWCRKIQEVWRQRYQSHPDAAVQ", "experiment": "Inhibition of human recombinant PDK1 at 125 nM"}},
  "note": "The source made the active and inactive calls. No cut-off for these calls is given here.",
  "data": [
    {"smiles": "O=C1NCc2c1c1c3cc(O)ccc3[nH]c1c1[nH]c3ccccc3c21", "values": [
      {"measurement": "IC50", "setting": "[1]", "value": 0.006, "unit": "µM"},
      {"measurement": "Activity", "setting": "MDA-MB-231 [2]", "value": "Active"},
      {"measurement": "inhibition", "setting": "MDA-MB-231 [3]", "value": "Dose-Dependent Effect"},
      {"measurement": "Activity", "setting": "[4]", "value": "Non-Toxic"},
      {"measurement": "IC50", "setting": "MDA-MB-231 [5]", "value": 7.19, "unit": "µM"},
      {"measurement": "IC50", "setting": "SK-OV-3", "value": 4.44, "unit": "µM"},
      {"measurement": "Activity", "setting": "MDA-MB-231 [6]", "value": "Active"},
      {"measurement": "Activity", "setting": "MDA-MB-231 [7]", "value": "Active"},
      {"measurement": "Activity", "setting": "MDA-MB-231 [8]", "value": "Active"},
      {"measurement": "AUC(0-t) at 8 h", "setting": "[9]", "value": 6.24, "unit": "µg·h/mL"},
      {"measurement": "AUC(0-inf)", "setting": "[10]", "value": 6.25, "unit": "µg·h/mL"},
      {"measurement": "MRT last at 8 h", "setting": "[11]", "value": 10.8, "unit": "min"},
      {"measurement": "MRT inf", "setting": "[12]", "value": 10.8, "unit": "min"},
      {"measurement": "half-life", "setting": "[13]", "value": 90.6, "unit": "min"},
      {"measurement": "Cmax", "setting": "[14]", "value": 21.6, "unit": "µg/mL"},
      {"measurement": "clearance", "setting": "[15]", "value": 1.76, "unit": "L/h/kg"},
      {"measurement": "Vd", "setting": "[16]", "value": 4.87, "unit": "L/kg"},
      {"measurement": "IC50", "setting": "[17]", "value": 0.923, "unit": "µM"},
      {"measurement": "IC50", "setting": "[18]", "value": 0.0607, "unit": "µM"},
      {"measurement": "IC50", "setting": "[19]", "value": 0.139, "unit": "µM"},
      {"measurement": "IC50", "setting": "[20]", "value": "> 10", "unit": "µM"},
      {"measurement": "bioavailability", "setting": "[21]", "value": "< 1", "unit": "%"},
      {"measurement": "Drug uptake", "setting": "[22]", "value": "Active"},
      {"measurement": "inhibition", "setting": "[23]", "value": "Active"},
      {"measurement": "inhibition", "setting": "[24]", "value": "Active"},
      {"measurement": "inhibition", "setting": "MDA-MB-231 [25]", "value": "Active"},
      {"measurement": "inhibition", "setting": "MDA-MB-231 [26]", "value": "Active"},
      {"measurement": "Activity", "setting": "[27]", "value": "inactive"},
      {"measurement": "Activity", "setting": "[28]", "value": "inactive"},
      {"measurement": "Activity", "setting": "[29]", "value": "inactive"},
      {"measurement": "Activity", "setting": "[30]", "value": "inactive"},
      {"measurement": "inhibition", "setting": "[31]", "value": "Active"},
      {"measurement": "inhibition", "setting": "[32]", "value": "Active"},
      {"measurement": "inhibition", "setting": "[33]", "value": "Active"},
      {"measurement": "inhibition", "setting": "[34]", "value": "Active"}
    ]}
  ]
}
